Experimental data published in patent US20220023273A1, “METHODS FOR TREATING SYMPTOMS AND DISORDERS ASSOCIATED WITH LYSOSOMAL STORAGE DISEASES” (GENZYME CORPORATION, priority 2019, published 2022).

How the values were obtained:
Assay type in all cases: in vivo, human
[1] = Phase 1 Study 1 Part 2: PK with and without a high-fat meal; conditions: healthy men, single oral 5 mg, fed vs fasting
Source text: Study 1 was a 2-part single-center trial in healthy adult male volunteers.
After a 7-day washout period, participants were crossed over to the other condition.

[2] = test system: adult male Fabry patients; assay: Fabry clinical study: SF-36 bodily pain and abdominal pain assessment; conditions: Fabry males; for patients with decreased severity of abdominal pain / patients with improved overall bodily pain scores (SF-36) / patients with reduced number of days with gastrointestinal pain: 15 mg/day oral
Source text: (§1) Each sample was scored independently by 3 pathologists for the presence of GL-3 inclusions on a four-point scale, and rated as 0 (no/trace), 1 (mild), 2 (moderate), or 3 (severe) according to Eng et al., N. Engl. J. Med. 345:9-16 (2001). A single score per patient per time point was derived by taking the score rated by the majority of the three pathologists. If a majority score could not be derived, then the median score was used (resulting in some fractional scores). Plasma samples were also analyzed for GL-3, lyso-GL-3, GL-1 and GM3 at baseline and weeks 12, 26, 52 and 156. Pain scores and abdominal symptoms were analyzed at baseline and weeks 12, 26, 52, 104 and 156 using the SF-36 scoring protocol.
Patients were assessed using the Short Form-36 (SF-36) questionnaire on numerous visits from baseline to week 156. This is a 36-item questionnaire used to measure 8 various aspects of health (vitality, physical functioning, bodily pain, general health perceptions, physical role functioning, emotional role functioning, social role functioning and mental health). The score for each of the eight aspects ranges from 0 (maximum disability) to 100 (no disability), and thus, higher scores indicate good health condition. In addition, gastrointestinal symptoms, including abdominal pain, abdominal distention, and bowl movements, were assessed using a modified version of the inflammatory bowel severity scoring system. Particular questions asked as part of these assessments included: (1) whether the patient suffered abdominal pain within the last ten days, (2) what was the severity of abdominal pain suffered in the last ten days using a 0 (no pain) to 100 (very severe pain) scale, and (3) on how many days within the last ten days did the patient have abdominal pain.

[3] = test system: adult patients with Gaucher disease Type 3; assay: GD3 clinical study: markers for systemic disease (spleen volume, platelet count, hemoglobin); conditions: GD3, 15 mg/day oral + imiglucerase
Procedure: (§2) During the study patients were evaluated for safety and tolerability, CSF and plasma biomarkers (glucosylceramide, GL-1; glucosylsphingosine, lyso-GL1), pharmacokinetics, markers for systemic disease (spleen and liver volume measured by magnetic resonance imaging (MRI), platelet count, hemoglobin levels), indicia of interstitial lung disease (high resolution pulmonary computed tomography (CT)), and horizontal saccadic eye movement.
Individual patient data for platelet counts are shown in the table below (shown as 10^9 platelets/L): […]

[4] = test system: adult patients with Gaucher disease Type 3; assay: GD3 clinical study: Scale for Assessment and Rating of Ataxia (SARA)
Procedure: The degree of ataxia at baseline and throughout the study was evaluated by the Scale for Assessment and Rating of Ataxia (SARA; Schmitz-Hubsch et al. [2006]), which assesses eight distinct attributes of cerebellar ataxia on a scale of 0-40. The eight attributes are gait, stance, sitting, speech disturbance, finger chase, nose-finger test, fast alternate hand movement, and heel-shin slide. SARA ataxia scoring results for all six patients is presented in the chart below: […]

[5] = Phase 1 Study 2: ascending repeated-dose pharmacokinetics
[6] = test system: adult patients with Gaucher disease Type 3; assay: GD3 clinical study: interstitial lung disease by high-resolution CT; conditions: after 26 weeks; GD3, 15 mg/day oral + imiglucerase
Procedure: as §2
Severity of interstitial lung disease was characterized by the percent of lung volume affect by ILD as measured by high-resolution CT in four lung regions (aortic arch, carina, lower zone L3, lower zone L4). Patients were rated as having severe ILD (51-100% of lung volume affected), moderate ILD (26-50% of lung volume affected), mild ILD (1-25% of lung volume affected) or normal (0% of lung volume showing ILD).

[7] = test system: GL-3 inclusions in skin cells; assay: Fabry clinical study: skin GL-3 inclusion score by light microscopy; conditions: Fabry males
Procedure: A three-year open-label investigation of Compound 2 in young classic Fabry disease patients was conducted in order to evaluate the long-term safety, pharmacodynamics and exploratory efficacy of Compound 2 in adult male Fabry patients. Eleven subjects enrolled in the study, and seven subjects completed all aspects of the study. All subjects were males diagnosed with classic Fabry disease confirmed by genotype and residual alpha-galactosidase activity below detection levels (9 of the 11 had nonsense mutation in the GLA gene). All subjects had lyso-GL3 levels in plasma of at least 65 ng/mL and had no prior Fabry disease-specific treatment. The median age of subject was 24 years (range 19-37).
as §1

[8] = test system: adult patients with Gaucher disease Type 3; assay: GD3 clinical study: resting-state fMRI connectivity; conditions: Patient 5 likely non-compliant, GD3, 15 mg/day oral + imiglucerase
Procedure: Neurological function—was further evaluated using functional magnetic resonance imaging (fMRI). Patient 2 was excluded because no fMRI data was collected at the Week 52 session. Resting-state fMRI screening sessions were performed at baseline screening, Week 26, and Week 52 visits. Connectivity estimates from four subjects (Patients 1, 3, 4 and 5) were entered into second-level analyses as a “compliant” group. Patient 5 was isolated due to likely non-compliance with study medication, as described above. Analyses were performed as described elsewhere (Smith et al. [2009]).
Spatial analysis of the connectivity between different anatomic regions of the brain is performed to define a correlation coefficient for regressed voxelwise mean intensity.

[9] = healthy adults, 5 mg once daily, Day 14
[10] = repeated once-daily doses from 5-20 mg

CC(C)(NC(=O)O[C@@H]1CN2CCC1CC2)c1csc(-c2ccc(F)cc2)n1 [Compound 2, (S)-quinuclidin-3-yl (2-(2-(4-fluorophenyl)thiazol-4-yl)propan-2-yl)carbamate]
effect of a high-fat meal on Compound 2 exposure [1]: no effect | abdominal pain and discomfort ([2]; 15 mg/day): consistently reduces abdominal pain and discomfort | patients with decreased severity of abdominal pain ([2]; week 26, patients with gastrointestinal pain at baseline): four out of five | patients with improved overall bodily pain scores (SF-36) ([2]; week 26): Seven of nine | patients with reduced number of days with gastrointestinal pain ([2]; week 26): five of five | patients with decreased severity of abdominal pain ([2]; week 156, patients with gastrointestinal pain at baseline): four out of four | patients with improved overall bodily pain scores (SF-36) ([2]; week 156): three of six | patients with reduced number of days with gastrointestinal pain ([2]; week 156): three of four | systemic deterioration ([3]; 26 weeks, all patients): absence of systemic deterioration | changes in hemoglobin levels ([3]; 26 weeks): no clinically meaningful changes | patients with reductions in splenic volume of 10% or more ([3]; 26 weeks): Two | changes in hemoglobin levels ([3]; Week 52): no clinically meaningful changes | patients with spleen volume reductions ([3]; Week 52): two | patients showing improvements in ataxia ([4]; 52 weeks, GD3, 15 mg/day oral + imiglucerase): 5 of 6 | SARA stance score, Patient 4 ([4]; Week 52 (baseline 1), knee pain and toe injury at exam): 5 | patients exhibiting an improvement in ataxia, excluding Patient 5 ([4]; Week 52, GD3, 15 mg/day oral + imiglucerase): 4 out of 5 | AUC0-24, Geometric mean (CV) [5, 9]: 632 (19) ng · h/mL | AUC0-24, Mean (SD) [5, 9]: 642 (121) ng · h/mL | tmax, median (range) ([5]; healthy adults, 10 mg once daily, Day 1): 3.00 (2.00-5.00) h | tmax, median (range) ([5]; healthy adults, 20 mg once daily, Day 14): 3.00 (2.00-8.00) h | Ctrough values ([5]; healthy adults, 5, 10, or 20 mg once daily for 14 days): reached a plateau after Day 5 | effect of age and gender on accumulation [5, 10]: neither age nor gender affected accumulation | time to steady state [5, 10]: ≤ 5 days | patients showing regression of ILD [6]: 4 out of 5 | levels of GL-3 inclusions in the skin ([7]; 15 mg/day): consistently reduces the levels of GL-3 inclusions in the skin | patients with a 1-point reduction in skin GL-3 score ([7]; by week 156, 15 mg/day oral): five | patients with complete clearance of GL-3 inclusions ([7]; by week 156, 15 mg/day oral): two | patients with no change in skin GL-3 score ([7]; by week 156, 15 mg/day oral): one | connectivity between the default mode (resting) network and the executive function network [8]: increased in Patients 1, 3, 4 and 6, but decreased in Patient 5
